Measurements: patent publication US20080279907A1, “Antimicrobial medical devices and methods for making and using same” (Ash Access Technology, Inc., priority 2007, published 2008)

Columns and labels:
[1] = Desorption of parabens from paraben impregnated polycarbonate catheter pieces in 0.24 M sodium citrate pH 6.2 (HPLC); format: physicochemical
Description: One inch polycarbonate catheter pieces including a surface area of about 4.64 cm^2 were impregnated with methyl paraben and propyl paraben. A solution of 100% 1,2-propanediol was prepared with 9% methyl paraben and 2% propyl paraben. Pairs of the one inch catheter pieces were placed into three 25 ml flasks including 10 ml of the 1,2-propanediol and paraben solution. The flasks including the catheter pieces were placed on a shaker at 220 rpm and 27° C. for two, four, or nine hour time periods. At the end of each time period, the catheter pieces were removed, rinsed with distilled water, and dried.
Desorption analysis of the paraben impregnated catheter pieces was performed in 0.24 M sodium citrate with a pH of 6.2. The total amount of either methyl paraben or propyl paraben released from the catheter pieces was calculated using HPLC analysis performed with a Waters Alliance 2690 including a 996 Photodiode Array Detector. Each calculation used a solution of HPLC grade H2O, methanol (MeOH), and acetonitrile (CAN) which were pre-filtered through a Millipore 0.45 μm nylon filter before use. Trifluoracetic acid (TFA) was added to H2O and acetonitrile (ACN) to 0.1%. A Waters Symmetry column (C8 3.9×150 mm, 5 μm) was applied with a Waters guard column (Waters, Sentry Guard column, Nova-Pak C18, 60A, 4 μm 3.9×20 mm).
A gradient of 67% H2O/33% ACN was used for 6.5 min, ramped to 45 %/55% from 6.5 to 7.0 min, and kept at 45%/55% until 15.0 min, at 15.0 min the concentration reverted to 67%/33%, and the system was run until 18 min. Injection volume for each sample was 10 μl and samples and column were run at ambient temperature.
Table 2 includes the graphical data represented in FIG. 8 and associated with the desorption of propyl paraben from the paraben impregnated catheter pieces prepared as discussed above. Again, the samples were impregnated only with parabens and desorbed in 10 ml 0.24 M Na-citrate, pH 6.2 over time.

[2] = Perfusion of parabens and methylene blue through polycarbonate membrane in perfusion chamber (HPLC of lower chamber); format: physicochemical
Description: An experiment was performed to determine a method for perfusing methylene blue, methyl paraben, and propyl paraben through a polycarbonate membrane with causing only minimal changes to the strength and elasticity of the membrane. In FIG. 12, there is illustrated a perfusion chamber system 50 used during the experiment. System 50 includes an upper chamber 51 and a lower chamber 52 separated by a polycarbonate membrane 53 having a thickness of 0.60 mm. The upper and lower chambers 51, 52 are generally structured to hold 10.5 cm^3 or 10.5 ml of fluid. The upper chamber 51 was connected to a peristaltic pump (not shown) and the lower chamber 52 was filled with distilled water. First and second solutions, respectively including the parabens and the methylene blue, were prepared in accordance with the method set forth in EXAMPLE 6 above. As best seen in Tables 6 and 7 below, the solutions were connected to the pump and passed through the first chamber 51 at a constant rate at 37° C. over various lengths of time.
Table 6 includes data obtained from HPLC analysis comparing the methyl paraben, propyl paraben, and methylene blue concentrations in the lower chamber 52. The parameters for the methyl and propyl paraben and methylene blue treatments are indicated in the left hand columns.

[3] = lower chamber, 20% PG/80% DI H2O (0.9% MP, 0.2% PP) ~9 hrs at 37 C., then MB ~10 days

- desorption by the end of the study ([1]; nearly 3 months, FIGS. 8 and 9): negligible desorption
- period of significant release ([1]; paraben impregnated catheter pieces, 0.24 M Na-citrate pH 6.2): 20 days
- Total PP released (mg)/1″ catheter ([1]; treatment 2 hrs (100% PG, 9% MP, 2% PP), time 1 hour): 0.048 mg/1″ catheter
- Total PP released (mg)/1″ catheter ([1]; treatment 2 hrs (100% PG, 9% MP, 2% PP), time 3 hours): 0.081 mg/1″ catheter
- Total PP released (mg)/1″ catheter ([1]; treatment 2 hrs (100% PG, 9% MP, 2% PP), time 7 hours): 0.121 mg/1″ catheter
- Total PP released (mg)/1″ catheter ([1]; treatment 2 hrs (100% PG, 9% MP, 2% PP), time 24 hours): 0.121 mg/1″ catheter
- Total PP released (mg)/1″ catheter ([1]; treatment 2 hrs (100% PG, 9% MP, 2% PP), time 4 days): 0.153 mg/1″ catheter
- Total PP released (mg)/1″ catheter ([1]; treatment 2 hrs (100% PG, 9% MP, 2% PP), time 5 days): 0.182 mg/1″ catheter
- Total PP released (mg)/1″ catheter ([1]; treatment 2 hrs (100% PG, 9% MP, 2% PP), time 6 days): 0.209 mg/1″ catheter
- Total PP released (mg)/1″ catheter ([1]; treatment 2 hrs (100% PG, 9% MP, 2% PP), time 8 days): 0.239 mg/1″ catheter
- Total PP released (mg)/1″ catheter ([1]; treatment 2 hrs (100% PG, 9% MP, 2% PP), time 11 days): 0.264 mg/1″ catheter
- Total PP released (mg)/1″ catheter ([1]; treatment 2 hrs (100% PG, 9% MP, 2% PP), time 13 days): 0.288 mg/1″ catheter
- Total PP released (mg)/1″ catheter ([1]; treatment 2 hrs (100% PG, 9% MP, 2% PP), time 15 days): 0.311 mg/1″ catheter
- Total PP released (mg)/1″ catheter ([1]; treatment 2 hrs (100% PG, 9% MP, 2% PP), time 18 days): 0.332 mg/1″ catheter
- Total PP released (mg)/1″ catheter ([1]; treatment 2 hrs (100% PG, 9% MP, 2% PP), time 22 days): 0.352 mg/1″ catheter
- Total PP released (mg)/1″ catheter ([1]; treatment 2 hrs (100% PG, 9% MP, 2% PP), time 29 days): 0.37 mg/1″ catheter
- Total PP released (mg)/1″ catheter ([1]; treatment 2 hrs (100% PG, 9% MP, 2% PP), time 36 days): 0.387 mg/1″ catheter
- Total PP released (mg)/1″ catheter ([1]; treatment 2 hrs (100% PG, 9% MP, 2% PP), time 50 days): 0.404 mg/1″ catheter
- Total PP released (mg)/1″ catheter ([1]; treatment 2 hrs (100% PG, 9% MP, 2% PP), time 67 days): 0.417 mg/1″ catheter
- Total PP released (mg)/1″ catheter ([1]; treatment 2 hrs (100% PG, 9% MP, 2% PP), time 81 days): 0.429 mg/1″ catheter
- Total PP released (mg)/1″ catheter ([1]; treatment 4 hrs (100% PG, 9% MP, 2% PP), time 1 hour): 0.007 mg/1″ catheter
- Total PP released (mg)/1″ catheter ([1]; treatment 4 hrs (100% PG, 9% MP, 2% PP), time 3 hours): 0.069 mg/1″ catheter
- Total PP released (mg)/1″ catheter ([1]; treatment 4 hrs (100% PG, 9% MP, 2% PP), time 7 hours): 0.138 mg/1″ catheter
- Total PP released (mg)/1″ catheter ([1]; treatment 4 hrs (100% PG, 9% MP, 2% PP), time 24 hours): 0.208 mg/1″ catheter
- Total PP released (mg)/1″ catheter ([1]; treatment 4 hrs (100% PG, 9% MP, 2% PP), time 4 days): 0.254 mg/1″ catheter
- Total PP released (mg)/1″ catheter ([1]; treatment 4 hrs (100% PG, 9% MP, 2% PP), time 5 days): 0.293 mg/1″ catheter
- Total PP released (mg)/1″ catheter ([1]; treatment 4 hrs (100% PG, 9% MP, 2% PP), time 6 days): 0.326 mg/1″ catheter
- Total PP released (mg)/1″ catheter ([1]; treatment 4 hrs (100% PG, 9% MP, 2% PP), time 8 days): 0.362 mg/1″ catheter
- Total PP released (mg)/1″ catheter ([1]; treatment 4 hrs (100% PG, 9% MP, 2% PP), time 11 days): 0.393 mg/1″ catheter
- Total PP released (mg)/1″ catheter ([1]; treatment 4 hrs (100% PG, 9% MP, 2% PP), time 13 days): 0.424 mg/1″ catheter
- Total PP released (mg)/1″ catheter ([1]; treatment 4 hrs (100% PG, 9% MP, 2% PP), time 15 days): 0.45 mg/1″ catheter
- Total PP released (mg)/1″ catheter ([1]; treatment 4 hrs (100% PG, 9% MP, 2% PP), time 18 days): 0.476 mg/1″ catheter
- Total PP released (mg)/1″ catheter ([1]; treatment 4 hrs (100% PG, 9% MP, 2% PP), time 22 days): 0.497 mg/1″ catheter
- Total PP released (mg)/1″ catheter ([1]; treatment 4 hrs (100% PG, 9% MP, 2% PP), time 29 days): 0.518 mg/1″ catheter
- Total PP released (mg)/1″ catheter ([1]; treatment 4 hrs (100% PG, 9% MP, 2% PP), time 36 days): 0.539 mg/1″ catheter
- Total PP released (mg)/1″ catheter ([1]; treatment 4 hrs (100% PG, 9% MP, 2% PP), time 50 days): 0.569 mg/1″ catheter
- Total PP released (mg)/1″ catheter ([1]; treatment 4 hrs (100% PG, 9% MP, 2% PP), time 67 days): 0.585 mg/1″ catheter
- Total PP released (mg)/1″ catheter ([1]; treatment 4 hrs (100% PG, 9% MP, 2% PP), time 81 days): 0.6 mg/1″ catheter
- Total PP released (mg)/1″ catheter ([1]; treatment 9 hrs (100% PG, 9% MP, 2% PP), time 1 hour): 0.082 mg/1″ catheter
- Total PP released (mg)/1″ catheter ([1]; treatment 9 hrs (100% PG, 9% MP, 2% PP), time 3 hours): 0.124 mg/1″ catheter
- Total PP released (mg)/1″ catheter ([1]; treatment 9 hrs (100% PG, 9% MP, 2% PP), time 7 hours): 0.175 mg/1″ catheter
- Total PP released (mg)/1″ catheter ([1]; treatment 9 hrs (100% PG, 9% MP, 2% PP), time 24 hours): 0.221 mg/1″ catheter
- Total PP released (mg)/1″ catheter ([1]; treatment 9 hrs (100% PG, 9% MP, 2% PP), time 4 days): 0.279 mg/1″ catheter
- Total PP released (mg)/1″ catheter ([1]; treatment 9 hrs (100% PG, 9% MP, 2% PP), time 5 days): 0.331 mg/1″ catheter
- Total PP released (mg)/1″ catheter ([1]; treatment 9 hrs (100% PG, 9% MP, 2% PP), time 6 days): 0.375 mg/1″ catheter
- Total PP released (mg)/1″ catheter ([1]; treatment 9 hrs (100% PG, 9% MP, 2% PP), time 8 days): 0.422 mg/1″ catheter
- Total PP released (mg)/1″ catheter ([1]; treatment 9 hrs (100% PG, 9% MP, 2% PP), time 11 days): 0.463 mg/1″ catheter
- Total PP released (mg)/1″ catheter ([1]; treatment 9 hrs (100% PG, 9% MP, 2% PP), time 13 days): 0.5 mg/1″ catheter
- Total PP released (mg)/1″ catheter ([1]; treatment 9 hrs (100% PG, 9% MP, 2% PP), time 15 days): 0.533 mg/1″ catheter
- Total PP released (mg)/1″ catheter ([1]; treatment 9 hrs (100% PG, 9% MP, 2% PP), time 18 days): 0.565 mg/1″ catheter
- Total PP released (mg)/1″ catheter ([1]; treatment 9 hrs (100% PG, 9% MP, 2% PP), time 22 days): 0.594 mg/1″ catheter
- Total PP released (mg)/1″ catheter ([1]; treatment 9 hrs (100% PG, 9% MP, 2% PP), time 29 days): 0.622 mg/1″ catheter
- Total PP released (mg)/1″ catheter ([1]; treatment 9 hrs (100% PG, 9% MP, 2% PP), time 36 days): 0.65 mg/1″ catheter
- Total PP released (mg)/1″ catheter ([1]; treatment 9 hrs (100% PG, 9% MP, 2% PP), time 50 days): 0.687 mg/1″ catheter
- Total PP released (mg)/1″ catheter ([1]; treatment 9 hrs (100% PG, 9% MP, 2% PP), time 67 days): 0.708 mg/1″ catheter
- Total PP released (mg)/1″ catheter ([1]; treatment 9 hrs (100% PG, 9% MP, 2% PP), time 81 days): 0.727 mg/1″ catheter
- time until perfused through the membrane and detected in the lower chamber ([2]; 0.60 mm polycarbonate membrane, 37° C.): within two hours
- PP conc [2, 3]: 0.01 mg/mL
- Total mg PP in 10.5 ml lower chamber [2, 3]: 0.105 mg
Structure (SMILES): CCCOC(=O)c1ccc(O)cc1 [PP, propyl paraben]
